Reference: patent publication US11226337B2, “Chemoproteomic profiling of protein electrophilic and oxidative post-translational modifications” (Zenagem, LLC, priority 2017, dated 2022)
Entries after “also recorded” stand apart in the source; their conditions may differ.

What was measured:
[1] = target: T1, IRS4 Insulin receptor substrate 4 (O14654) (Homo sapiens, UniProt O14654); experiment: SILAC RP-ABPP; type: cell-based; details: SILAC H/L, HEK293T
T1 construct: In Situ Labelling of Cells with Hydrazine Probes for MS Experiments; endogenous in cells
Outline: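 SILAC cells (HEK293T, MDA-MB-231) grown near confluence; heavy: probe 1, 3 mM, 0.5 h; light: equal 3 or probe + 10× 3. Proteomes mixed equimolar, CuAAC with 100 μM biotin-azide, 1 h RT; enrichment, LC-MS. Ratios via CIMAGE-type extraction, ≥3 peptides.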

[2] = target: T2, AMD1 pyruvoyl cofactor (Homo sapiens, UniProt P17707); experiment: in vitro labelling of purified reconstituted AMD1, LC-MS/MS; type: binding; details: 50 μM AMD1, 3 mM probe 1, overnight
T2 construct: made in house; host or cells: E. coli (vector pQE30)
Method: Full-length AMD1 having an additional 12 amino acids (MRGSH6GS) (SEQ ID NO: 46) appended to the N-terminal methionine residue was expressed from the bacterial vector pQE30. The appendage contains a His6 element (SEQ ID NO: 69) to permit purification of the protein by metal ion affinity chromatography on Ni-NTA agarose (Qiagen). E. coli cell cultures were grown at 37° C. in rich LB broth (35 g/L tryptone, 20 g/L yeast extract, 5 g/L NaCl, and 0.05 g/L kanamycin (pH 7.0)) to an optical density at 600 nm of 0.6-0.8. The flasks were cooled rapidly by incubation on ice for 30 minutes prior to addition of IPTG (1 mM). Following induction, cultures were grown at 15-18° C. for an additional 16-20 hours and cells were harvested by centrifugation (8,000 g, 30 min, 4° C.). The cell paste was flash-frozen in liquid N2 and stored at −80° C. A typical yield was 8-10 g of wet cell paste per liter of culture. […]
A 100 μL solution of 50 μM purified reconstituted AMD1 in PBS was incubated overnight at ambient temperature in the presence or absence of 3 mM probe 1 (pH 7). […] Peptides were eluted from the column using a 180 minute gradient from 0% to 50% Buffer B (Buffer A: 5% acetonitrile, 95% H2O, 0.1% formic acid; Buffer B: 80% acetonitrile, 20% H2O, 0.1% formic acid) and analyzed on an LTQ-Orbitrap Finnigan mass spectrometer (Thermo Scientific). […]

T2 sequence (P17707 68-334 limits assumed): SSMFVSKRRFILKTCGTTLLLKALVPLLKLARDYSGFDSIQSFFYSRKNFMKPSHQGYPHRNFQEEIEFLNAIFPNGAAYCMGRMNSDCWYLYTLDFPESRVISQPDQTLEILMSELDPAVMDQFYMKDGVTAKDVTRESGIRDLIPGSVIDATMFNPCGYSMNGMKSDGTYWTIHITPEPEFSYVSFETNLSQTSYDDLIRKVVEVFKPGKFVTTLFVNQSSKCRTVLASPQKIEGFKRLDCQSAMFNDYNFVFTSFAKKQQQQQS
T2 sequence (P17707 1-67 partner limits assumed): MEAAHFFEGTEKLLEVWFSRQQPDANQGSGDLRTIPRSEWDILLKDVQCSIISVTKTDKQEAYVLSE
T1 sequence (O14654 whole entry): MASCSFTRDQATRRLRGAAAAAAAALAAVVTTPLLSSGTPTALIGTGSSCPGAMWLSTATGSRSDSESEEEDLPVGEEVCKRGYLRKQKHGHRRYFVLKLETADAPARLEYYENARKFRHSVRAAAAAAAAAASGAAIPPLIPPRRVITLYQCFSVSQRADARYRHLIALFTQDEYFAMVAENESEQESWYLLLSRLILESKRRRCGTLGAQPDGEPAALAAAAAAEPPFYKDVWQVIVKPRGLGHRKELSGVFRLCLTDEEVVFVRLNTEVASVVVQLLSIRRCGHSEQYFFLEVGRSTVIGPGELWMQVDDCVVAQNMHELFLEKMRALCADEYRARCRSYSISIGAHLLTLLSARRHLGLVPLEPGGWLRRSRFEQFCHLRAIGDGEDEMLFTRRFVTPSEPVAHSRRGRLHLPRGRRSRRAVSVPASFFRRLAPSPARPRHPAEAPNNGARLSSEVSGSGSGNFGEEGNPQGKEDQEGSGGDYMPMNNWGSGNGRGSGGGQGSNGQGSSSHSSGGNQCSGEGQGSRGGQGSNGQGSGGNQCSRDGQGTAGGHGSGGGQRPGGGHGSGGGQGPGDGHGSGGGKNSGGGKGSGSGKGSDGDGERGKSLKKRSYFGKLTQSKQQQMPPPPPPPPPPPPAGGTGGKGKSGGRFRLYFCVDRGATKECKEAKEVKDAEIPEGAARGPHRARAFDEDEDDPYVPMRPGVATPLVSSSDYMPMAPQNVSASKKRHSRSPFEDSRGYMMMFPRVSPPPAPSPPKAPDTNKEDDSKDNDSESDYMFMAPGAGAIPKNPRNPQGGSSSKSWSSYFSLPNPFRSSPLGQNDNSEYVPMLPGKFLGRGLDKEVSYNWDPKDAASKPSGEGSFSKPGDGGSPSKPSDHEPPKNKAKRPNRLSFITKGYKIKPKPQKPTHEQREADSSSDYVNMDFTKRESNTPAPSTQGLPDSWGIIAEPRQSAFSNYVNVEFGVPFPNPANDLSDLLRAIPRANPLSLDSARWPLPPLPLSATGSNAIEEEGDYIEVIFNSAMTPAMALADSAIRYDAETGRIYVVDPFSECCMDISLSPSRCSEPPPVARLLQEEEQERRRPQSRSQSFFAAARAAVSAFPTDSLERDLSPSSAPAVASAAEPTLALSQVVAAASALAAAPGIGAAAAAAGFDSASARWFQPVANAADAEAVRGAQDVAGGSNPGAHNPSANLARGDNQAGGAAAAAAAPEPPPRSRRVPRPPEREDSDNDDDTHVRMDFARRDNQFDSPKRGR

C#CCNN.Cl [probe 1, prop-2-yn-1-ylhydrazine hydrochloride]
enrichment ratioavg ([1]; probe 1 3 mM 0.5 h vs probe 3): 20
competition ratioavg ([1]; probe 1 vs probe 1+10x probe 3): 1
site specificity of the reaction [2]: reacted specifically with the N-terminal pyruvoyl group
extent of reaction with the pyruvoyl group ([2]; ambient temperature, hydrochloride): the reaction with probe 1 was complete; also recorded: proceeded to near-completion
